In patent publication US11439606B2 (priority 2018, dated 2022):

Experiments:
Assay type in all cases: in vivo, rat
type I diabetic rats [1] = assay: Glycemia in STZ-induced type I diabetic rats treated with DMF; settings: DMF 8 mg/kg daily ip
type I diabetic rats [2] = assay: Cholesterol and triglyceride levels in type I diabetic rats treated with DMF; settings: versus untreated rats and known levels in non-diabetic rats; DMF 8 mg/kg daily ip
Method: (§1) Controlled test results were performed by, and under the direction of, the inventors, involving four type I diabetic rats, two of which were female and two were male, for the purpose of measuring the effectiveness of administering treatment in accordance with the present invention.

type I diabetic rats [3] = assay: Renal function tests (urea, serum creatinine) in type I diabetic rats treated with DMF; settings: DMF 8 mg/kg daily ip
Method: as §1

type I diabetic rats [4] = assay: Liver function tests (bilirubin, aspartate aminotransferase, gamma glutamyltransferase, alkaline phosphatase) in type I diabetic rats treated with DMF; settings: versus untreated control rats, DMF 8 mg/kg daily ip
Method: as §1

[5] = first rat, STZ-induced diabetes, average glycemia 440 mg % before treatment

Substance: dimethylformamide [DMF]
- glycemia level versus untreated rats (FIG. 1) (type I diabetic rats [1]; female and male type I diabetic rats): remaining significantly below female and male rats not receiving treatment
- blood glucose level after seven days of treatment (type I diabetic rats [1]; [5]): below 100 mg %
- blood glucose level four days after treatment (type I diabetic rats [1]; [5]): 94 mg %
- blood glucose level after seven days of treatment (type I diabetic rats [1]; second rat, STZ-induced diabetes, average glycemia 526 mg % before treatment): below 120 mg %
- cholesterol levels (FIG. 3) (type I diabetic rats [2]): somewhat elevated
- triglycerides levels (FIG. 3) (type I diabetic rats [2]): significantly lowered
- levels of serum creatinine (FIG. 4) (type I diabetic rats [3]; versus untreated type I diabetic rats and known levels in non-diabetic rats): not only lower than the untreated, type I diabetic control group, but also lower than known levels of serum creatinine in non-diabetic female and male rats
- levels of urea (FIG. 4) (type I diabetic rats [3]; versus untreated type I diabetic rats): below that of the untreated type I diabetic rats
- liver function (FIG. 5) (type I diabetic rats [4]): either improved or not substantially different
